Test results: patent US8476301B2, “Pyrrolidin-3-ylacetic acid derivative” (Eisai R&D Management Co., Ltd., priority 2011, dated 2013)

The compounds below were run against T1, CX3CR1 (Homo sapiens, UniProt P49238) (assay: Inhibition of cell migration in fractalkine-induced chemotaxis assay). Settings: CX3CR1-expressing B300 cells preincubated with test compound 30 minutes; fractalkine 0.3 nM in lower wells; Transwell, 3.5 hours at 37° C.; migrated cells counted with CellTiter; read-out: IC50 (nM), 50% inhibitory concentration on fractalkine-induced cell migration.
T1 construct: expressed in transfected cells; host or cells: B300 cells
T1 sequence (P49238 1-355): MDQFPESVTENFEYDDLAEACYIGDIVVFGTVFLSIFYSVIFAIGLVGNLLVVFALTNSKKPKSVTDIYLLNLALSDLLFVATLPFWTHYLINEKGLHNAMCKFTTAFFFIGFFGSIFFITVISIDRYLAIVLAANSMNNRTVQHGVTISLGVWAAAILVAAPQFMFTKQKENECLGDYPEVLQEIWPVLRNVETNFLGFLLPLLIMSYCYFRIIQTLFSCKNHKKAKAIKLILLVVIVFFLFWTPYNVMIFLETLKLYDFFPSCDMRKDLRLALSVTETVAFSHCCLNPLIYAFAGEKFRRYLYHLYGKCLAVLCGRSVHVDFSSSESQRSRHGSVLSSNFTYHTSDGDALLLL
Type: cell-based
Experimental: The inhibitory effects of the example compounds on fractalkine-induced cell migration were examined using CX3CR1-transfected B300 cells
After equilibrating the Transwell plate (24-well clusters, pore size: 5 μm, manufactured by Corning Incorporated), a fractalkine solution (0.3 nM, manufactured by R&D Systems, Inc.) was added to the lower wells. CX3CR1-expressing B300 cells which were preincubated with the test compound (0.001, 0.003, 0.01 or 0.03 μM) for 30 minutes were placed in the upper layer wells, followed by incubation under the condition of 5% CO2 for 3.5 hours at 37° C. The number of cells migrated to the lower wells was evaluated using CellTiter (manufactured by Promega Corporation).
The inhibitory rate of the test compound on fractalkine-induced cell migration was calculated by the following formula, where [A] is the number of migrated cells in the presence of both fractalkine and the test compound, [B] is the number of migrated cells in the presence of fractalkine and in the absence of the test compound, and [C] is the number of migrated cells in the absence of both fractalkine and the test compound; the 50% inhibitory concentration (IC50) was calculated based on the inhibitory rate. Inhibitory rate (%)=[1−{(A−C)/(B−C)}]×100 (2) Results

SMILES	IC50 [nM]
C[C@H]1CN(Cc2c(Cl)cccc2Cl)C[C@@]1(CC(=O)O)C(=O)NC1CCN(CC2=CCCCC2)CC1 [Example 11, 2-[(3S,4R)-3-{[(1-Cyclohex-1-en-1-ylmethyl)piperidin-4-yl]carbamoyl}-1-[(2,6-dichlorophenyl)methyl]-4-methylpyrrolidin-3-yl]acetic acid]	6
C[C@H]1CN(Cc2c(Cl)cccc2Cl)C[C@@]1(CC(=O)O)C(=O)N[C@H]1CCN(CC2=CCCCC2)C1 (relative stereo) [Example 9]	16
Cc1cccc(Cl)c1CN1C[C@H](C)[C@](CC(=O)O)(C(=O)NC2CCN(CC3=CCCC3)CC2)C1 [Example 8, 2-[(3S,4R)-1-[(2-Chloro-6-methylphenyl)methyl]-3-{[(1-cyclopent-1-en-1-ylmethyl)piperidin-4-yl]carbamoyl}-4-methylpyrrolidin-3-yl]acetic acid]	31
